Test results: PubChem BioAssay (NCI)
Values joined by “and” are separate entries in the source; they are usually repeats but may differ in a detail not shown here. Equal values may be shown once.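 Compound exposure: 48 hours, 5 concentrations, 96-well plates. Here, GI50 denotes the concentration required for 50% inhibition of growth. TGI denotes the concentration required for complete inhibition of growth.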

Tests used:
Assay in all cases: NCI-60 cell line screen, 48 h
A498 renal = system: A498 renal
ACHN renal = system: ACHN renal
CAKI-1 renal = system: CAKI-1 renal
COLO 205 colon = system: COLO 205 colon
HCC-2998 colon = system: HCC-2998 colon
HCT-15 colon = system: HCT-15 colon
LOX IMVI melanoma = system: LOX IMVI melanoma
SN12C renal = system: SN12C renal
SW-620 colon = system: SW-620 colon
U251 CNS = system: U251 CNS

SMILES | GI50 (A498 renal) | TGI (A498 renal) | GI50 (ACHN renal) | TGI (ACHN renal) | GI50 (CAKI-1 renal) | TGI (CAKI-1 renal) | GI50 (COLO 205 colon) | TGI (COLO 205 colon) | GI50 (HCC-2998 colon) | TGI (HCC-2998 colon) | GI50 (HCT-15 colon) | TGI (HCT-15 colon) | GI50 (LOX IMVI melanoma) | TGI (LOX IMVI melanoma) | GI50 (SN12C renal) | TGI (SN12C renal) | GI50 (SW-620 colon) | TGI (SW-620 colon) | GI50 (U251 CNS) | TGI (U251 CNS)
N#Cc1c(NCc2ccccc2)nc(NCc2ccccc2)c(C#N)c1-c1ccc(Cl)cc1 | > 50 µM and 33 µM | > 50 µM and 89.7 µM | > 50 µM and 43.4 µM | > 100 µM | > 100 µM | > 100 µM | > 50 µM and 76 µM | > 100 µM | > 100 µM | > 100 µM | > 100 µM | > 100 µM | > 50 µM and 29.7 µM | > 100 µM | > 50 µM and 36.2 µM | > 100 µM | > 50 µM and 44.1 µM | > 100 µM | > 50 µM and 19.2 µM | > 50 µM and 40.8 µM
CC(C)NC(=O)OCc1c(COC(=O)NC(C)C)c(-c2ccc[n+](COC(=O)Cc3ccccc3)c2)n2c1CCC2 | – | 44.7 µM | – | 48.4 µM | – | 34 µM | – | > 100 µM | – | > 100 µM | – | > 100 µM | – | > 100 µM | – | > 100 µM | – | 50.5 µM | – | > 100 µM
CC(c1cc(Cl)ccc1O)c1cc(Cl)ccc1O | 8.4 µM | 20.8 µM | 3.99 µM | 14.1 µM | 2.61 µM | 16.4 µM | 17.6 µM | 33.5 µM | 3.84 µM | 12.8 µM | 4.54 µM | 16.6 µM | 3.97 µM | 17.1 µM | 3.66 µM | 16.1 µM | 3.7 µM | 13.3 µM | 3.93 µM | 14.5 µM
O=C(O)CCCCn1ccc(=O)[nH]c1=O | – | > 100 µM | – | > 100 µM | – | > 100 µM | – | > 100 µM | – | > 100 µM | – | > 100 µM | – | > 100 µM | – | > 100 µM | – | > 100 µM | – | > 100 µM
CC1(C)NC(=O)N(CCCCCCN2C(=O)NC(C)(C)C2=O)C1=O | – | > 100 µM | – | > 100 µM | – | > 100 µM | – | > 100 µM | – | > 100 µM | – | > 100 µM | – | > 100 µM | – | > 100 µM | – | > 100 µM | – | > 100 µM
COc1cc2c3c(n(CCCN4CCNCC4)c(=O)c2cc1OC)-c1cc2c(cc1C3=O)OCO2 | 0.281 µM | 4.44 µM | 0.0394 µM | 0.283 µM | 0.128 µM | 2.02 µM | 3.06 µM | 14 µM | 1.15 µM | 3.98 µM | 0.296 µM | 5.14 µM | 0.0732 µM | 0.757 µM | 0.102 µM | 0.491 µM | 0.0613 µM | 6.32 µM | 0.0892 µM | 2.92 µM
CNS(=O)(=O)OCC1OC(n2cnc3cncnc32)C(O)C1O (stereo not given) | > 100 µM | > 100 µM | > 100 µM | > 100 µM | > 100 µM | > 100 µM | > 100 µM | > 100 µM | > 100 µM | > 100 µM | > 100 µM | > 100 µM | > 100 µM | > 100 µM | > 100 µM | > 100 µM | > 100 µM | > 100 µM | > 100 µM | > 100 µM
CC1CCCC(C(=O)CC2CC(=O)NC(=O)C2)C1=O (stereo not given) | – | > 100 µM | – | > 100 µM | – | > 100 µM | – | > 100 µM | – | > 100 µM | – | > 100 µM | – | > 100 µM | – | > 100 µM | – | > 100 µM | – | > 100 µM
N#CCCN(CCC#N)c1ccc(/C=C(/NC(=O)c2cc([N+](=O)[O-])ccc2Cl)C(=O)NN)cc1 | – | > 100 µM | – | > 100 µM | – | > 100 µM | – | > 100 µM | – | > 100 µM | – | > 100 µM | – | > 100 µM | – | > 100 µM | – | > 100 µM | – | > 100 µM
CCCCCCC1N=C(N)N=C(N)N1c1cccc(Cl)c1 (stereo not given) | 2.67 µM | 15.6 µM | 9.28 µM | > 100 µM | 21.8 µM | > 78.5 µM | 1.44 µM | 18.4 µM | 0.668 µM | 11.2 µM | 21.6 µM | > 100 µM | 0.0917 µM | 13.2 µM | 0.559 µM | 13.1 µM | 0.188 µM | 15.9 µM | 0.0616 µM | 13.7 µM
CNC(=O)c1nn(C)c2c1C(C)(C)Cc1cnc(Nc3cccc(N4CCN(C)CC4)c3)nc1-2 | 0.0254 µM | 0.389 µM | 0.0896 µM | > 58.2 µM | 0.0636 µM | 1.9 µM | 0.239 µM | 1.59 µM | 0.83 µM | 14.9 µM | 0.186 µM | > 40.7 µM | 0.178 µM | 2.53 µM | 0.323 µM | 31 µM | 0.287 µM | 22.4 µM | 0.291 µM | 12.8 µM
NC(=O)c1cccc2c(N[C@H](CN3CCC3)c3ccc(Cl)c(C(F)(F)F)c3)ncnc12 | 0.138 µM | 0.908 µM | 1.38 µM | 13.5 µM | 0.232 µM | 3.39 µM | 0.837 µM | 2.66 µM | 1.17 µM | 2.88 µM | 0.947 µM | 10.7 µM | 2.73 µM | 14.7 µM | 2.11 µM | 13.9 µM | 3.43 µM | 16.3 µM | 0.548 µM | 12.1 µM
CS(=O)(=O)N1CCC(n2c(=O)c(Oc3ccc(F)cc3F)cc3cnc(NC4CCOCC4)nc32)CC1 | 3.18 µM | > 25 µM | > 25 µM | > 25 µM | > 25 µM | > 25 µM | > 25 µM | > 25 µM | > 25 µM | > 25 µM | > 25 µM | > 25 µM | > 25 µM | > 25 µM | > 25 µM | > 25 µM | > 25 µM | > 25 µM | > 25 µM | > 25 µM
CN1CCN(C(=O)[C@@]2(C)CC[C@]3(C)CC[C@]4(C)C(=CC[C@@H]5[C@@]6(C)CCC(=O)NC(C)(C)[C@@H]6CC[C@]54C)[C@@H]3C2)CC1 | 2.68 µM | 12.1 µM | 1.99 µM | 4.11 µM | 2.36 µM | 6.48 µM | 1.54 µM | 3.18 µM | 1.51 µM | 3.04 µM | 1.2 µM | 2.96 µM | 1.46 µM | 2.84 µM | 1.46 µM | 3.3 µM | 1.87 µM | 3.93 µM | 1.38 µM | 2.82 µM
